Experimental data taken from ChEMBL document CHEMBL3045445, “Structural features of GABAA receptor antagonists: pharmacophore modeling and 3D-QSAR studies” (Med Chem Res, 2013).

Assay: Displacement of [3H]muscimol from GABAA receptor in Sprague-Dawley rat brain membrane`after 60 mins by TopCount microplate scintillation counting analysis

| Structure (SMILES) | Ki [nM] | pKi |
| --- | --- | --- |
| Oc1noc(C2CCNCC2)c1CCc1ccc2ccccc2c1 | 490 | 6.31 |
| On1nc(-c2ccccc2)c(C2CCNCC2)c1Cc1cccc2ccccc12 | 1500 | 5.82 |
| Oc1noc(C2CCNCC2)c1-c1cccc2ccccc12 | 820 | 6.09 |
| Oc1noc(C2CCNCC2)c1CCCC(c1ccccc1)c1ccccc1 | 700 | 6.16 |
| CC1(c2cc(O)no2)CCNCC1 | 37000 | 4.43 |
| Oc1noc(C2CCNCC2)c1C(c1ccccc1)c1ccccc1 | 960 | 6.02 |
| Oc1noc(C2CCNCC2)c1Cc1ccc2ccc(Br)cc2c1 | 109 | 6.96 |

Now those with a lower Ki, led by results:

| Ki [nM] | pKi | Structure (SMILES) |
| --- | --- | --- |
| 16 | 7.8 | Oc1noc(C2CCNCC2)c1Cc1ccc2ccccc2c1Cl |
| 19 | 7.72 | Oc1noc(C2CCNCC2)c1Cc1ccc2ccccc2c1F |
| 21 | 7.68 | Oc1noc(C2CCNCC2)c1Cc1ccc2ccccc2c1-c1ccccc1 |
| 100 | 7 | Oc1noc(C2CCNCC2)c1Cc1cccc2ccccc12 |
| 22 | 7.66 | On1nc(Cc2cccc3ccccc23)c(C2CCNCC2)c1-c1ccccc1 |
| 80 | 7.1 | Oc1noc(C2CCNCC2)c1Cc1ccc2c(Br)cccc2c1 |
| 28 | 7.55 | CSc1c(Cc2c(O)noc2C2CCNCC2)ccc2ccccc12 |
| 36 | 7.44 | Oc1noc(C2CCNCC2)c1-c1ccc2ccccc2c1 |
| 45 | 7.35 | Oc1noc(C2CCNCC2)c1Cc1ccc2cccc(Br)c2c1 |
| 28 | 7.55 | N#Cc1c(Cc2c(O)noc2C2CCNCC2)ccc2ccccc12 |
